According to patent US5763404A, “Methods for using LHRH antagonists with low histamine release” (priority 1995, dated 1998):
Starred links: 1 amine or outer side, 2 acyl side, 3 side chain; linkers in the order of their positions; H or OH if unused. Non-standard residues stand in square brackets, D forms with d. Residues, ends and D or L forms follow the SMILES beside them. *: point of attachment. dAla(cis-4-NHCOPyz-cHex) = N[C@H](C[C@H]1CC[C@@H](NC(=O)c2cnccn2)CC1)C(=O)O; X2 = O=C(N[C@H]1CC[C@@H](C[C@H](N[*:1])C(=O)[*:2])CC1)c1cnccn1; X6 = O=C(N[C@H]1CC[C@H](C[C@@H](N[*:1])C(=O)[*:2])CC1)c1ccccn1; dPhe(4-Cl) = N[C@H](Cc1ccc(Cl)cc1)C(=O)O; d2Nal = N[C@H](Cc1ccc2ccccc2c1)C(=O)O; Nicotinoyl(6-Me) = Cc1ccc(C(=O)*)cn1; Picolinoyl(6-Me) = Cc1cccc(C(=O)*)n1; X11 = O=C([C@H](N[*:1])c1ccsc1)[*:2]; Lys(iPr) = CC(C)NCCCC[C@H](N)C(=O)O; Orn(iPr) = CC(C)NCCC[C@H](N)C(=O)O; d3Pal = N[C@H](Cc1cccnc1)C(=O)O; Nicotinoyl = O=C(c1cccnc1)*; Picolinoyl = O=C(c1ccccn1)*

System: anaesthesized rats
Test: wheal test, intradermal injection
Type: in vivo, rat
Set-up: Wheal (wheal response): unit not given here
Conditions: for Wheal: Table I; for Wheal / Wheal Area: 10 ug peptide intradermally
Summary of the method: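 Anaesthetized rats given intradermal injection of 10 ug peptide in 100 ul saline; area of the wheal calculated from its diameter.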

SMILES	Wheal [mm^2 /10]	Wheal Area [mm^2 /10 μg]	Wheal (wheal response) (Table XIV and text, unit not given)
CC(=O)N[C@H](Cc1ccc2ccccc2c1)C(=O)N[C@H](Cc1ccc(Cl)cc1)C(=O)N[C@H](Cc1cccnc1)C(=O)N[C@@H](CO)C(=O)N[C@@H](Cc1ccc(O)cc1)C(=O)N[C@H](CCCCNC(=O)c1cccnc1)C(=O)N[C@@H](CC(C)C)C(=O)N[C@@H](CCCNC(C)C)C(=O)N1CCC[C@H]1C(=O)N[C@H](C)C(N)=O [compound 24756] (Ac-[d2Nal][dPhe(4-Cl)][d3Pal]SY[dK](Nicotinoyl)L[Orn(iPr)]P[dA]-NH2)	92.2 ± 2.9	–	–
CC(=O)N[C@H](Cc1ccc2ccccc2c1)C(=O)N[C@H](Cc1ccc(Cl)cc1)C(=O)N[C@H](Cc1cccnc1)C(=O)N[C@@H](CO)C(=O)N[C@@H](CCCCNC(=O)c1ccccn1)C(=O)N[C@H](C[C@H]1CC[C@H](NC(=O)c2ccccn2)CC1)C(=O)N[C@@H](CC(C)C)C(=O)N[C@@H](CCCCNC(C)C)C(=O)N1CCC[C@H]1C(=O)N[C@H](C)C(N)=O [IV-3] (Ac-[d2Nal][dPhe(4-Cl)][d3Pal]SK(Picolinoyl)[X6]L[Lys(iPr)]P[dA]-NH2)	–	101.0 ± 3.0	–
CC(=O)N[C@H](Cc1ccc2ccccc2c1)C(=O)N[C@H](Cc1ccc(Cl)cc1)C(=O)N[C@@H](C(=O)N[C@@H](CO)C(=O)N[C@@H](CCCCNC(=O)c1ccccn1)C(=O)N[C@H](C[C@H]1CC[C@@H](NC(=O)c2cnccn2)CC1)C(=O)N[C@@H](CC(C)C)C(=O)N[C@@H](CCCCNC(C)C)C(=O)N1CCC[C@H]1C(=O)N[C@H](C)C(N)=O)c1ccsc1 [compound 26349] (Ac-[d2Nal][dPhe(4-Cl)][X11]SK(Picolinoyl)[dAla(cis-4-NHCOPyz-cHex)]L[Lys(iPr)]P[dA]-NH2)	–	84.6 ± 3.9	–
CC(=O)N[C@H](Cc1ccc2ccccc2c1)C(=O)N[C@H](Cc1ccc(Cl)cc1)C(=O)N[C@H](Cc1cccnc1)C(=O)N[C@@H](CO)C(=O)N[C@@H](CCCCNC(=O)c1ccccn1)C(=O)N[C@H](CCCCNC(=O)c1ccccn1)C(=O)N[C@@H](Cc1c[nH]c2ccccc12)C(=O)N[C@@H](CCCCNC(C)C)C(=O)N1CCC[C@H]1C(=O)N[C@H](C)C(N)=O [compound 25935] (Ac-[d2Nal][dPhe(4-Cl)][d3Pal]SK(Picolinoyl)[dK](Picolinoyl)W[Lys(iPr)]P[dA]-NH2)	–	78.5 ± 0	–
CC(=O)N[C@H](Cc1ccc2ccccc2c1)C(=O)N[C@H](Cc1ccc(Cl)cc1)C(=O)N[C@H](Cc1cccnc1)C(=O)N[C@@H](CO)C(=O)N[C@@H](CCCCNC(=O)c1cccnc1)C(=O)N[C@H](C[C@H]1CC[C@@H](NC(=O)c2cnccn2)CC1)C(=O)N[C@@H](CC(C)C)C(=O)N[C@@H](CCCCNC(C)C)C(=O)N1CCC[C@H]1C(=O)N[C@H](C)C(N)=O [compound 25806] (Ac-[d2Nal][dPhe(4-Cl)][d3Pal]SK(Nicotinoyl)[dAla(cis-4-NHCOPyz-cHex)]L[Lys(iPr)]P[dA]-NH2)	–	101.7 ± 5.0	–
CC(=O)N[C@H](Cc1ccc2ccccc2c1)C(=O)N[C@H](Cc1ccc(Cl)cc1)C(=O)N[C@H](Cc1cccnc1)C(=O)N[C@@H](CO)C(=O)N[C@@H](Cc1ccc(O)cc1)C(=O)N[C@H](CCCCNC(=O)c1ccccn1)C(=O)N[C@@H](CC(C)C)C(=O)N[C@@H](CCCNC(C)C)C(=O)N1CCC[C@H]1C(=O)N[C@H](C)C(N)=O [compound 26363] (Ac-[d2Nal][dPhe(4-Cl)][d3Pal]SY[dK](Picolinoyl)L[Orn(iPr)]P[dA]-NH2)	–	113.2 ± 5.5	–
CC(=O)N[C@H](Cc1ccc2ccccc2c1)C(=O)N[C@H](Cc1ccc(Cl)cc1)C(=O)N[C@H](Cc1cccnc1)C(=O)N[C@@H](CO)C(=O)N[C@@H](C[C@H]1CC[C@@H](NC(=O)c2cnccn2)CC1)C(=O)N[C@H](C[C@H]1CC[C@@H](NC(=O)c2cnccn2)CC1)C(=O)N[C@@H](CC(C)C)C(=O)N[C@@H](CCCCNC(C)C)C(=O)N1CCC[C@H]1C(=O)N[C@H](C)C(N)=O [compound 26326] (Ac-[d2Nal][dPhe(4-Cl)][d3Pal]S[X2][dAla(cis-4-NHCOPyz-cHex)]L[Lys(iPr)]P[dA]-NH2)	–	115.5 ± 2.4	115.5 ± 2.4
CC(=O)N[C@H](Cc1ccc2ccccc2c1)C(=O)N[C@H](Cc1ccc(Cl)cc1)C(=O)N[C@H](Cc1cccnc1)C(=O)N[C@@H](CO)C(=O)N[C@@H](CCCCNC(=O)c1ccc(C)nc1)C(=O)N[C@H](CCCCNC(=O)c1ccc(C)nc1)C(=O)N[C@@H](CC(C)C)C(=O)N[C@@H](CCCCNC(C)C)C(=O)N1CCC[C@H]1C(=O)N[C@H](C)C(N)=O [compound 25386] (Ac-[d2Nal][dPhe(4-Cl)][d3Pal]SK(Nicotinoyl(6-Me))[dK](Nicotinoyl(6-Me))L[Lys(iPr)]P[dA]-NH2)	126.1	–	–
CC(=O)N[C@H](Cc1ccc2ccccc2c1)C(=O)N[C@H](Cc1ccc(Cl)cc1)C(=O)N[C@H](Cc1cccnc1)C(=O)N[C@@H](CO)C(=O)N[C@@H](Cc1ccc(O)cc1)C(=O)N[C@H](CCCCNC(=O)c1cccnc1)C(=O)N[C@@H](CC(C)C)C(=O)N[C@@H](CCCCNC(=O)c1cccnc1)C(=O)N1CCC[C@H]1C(=O)N[C@H](C)C(N)=O [compound 24540] (Ac-[d2Nal][dPhe(4-Cl)][d3Pal]SY[dK](Nicotinoyl)LK(Nicotinoyl)P[dA]-NH2)	82.6 ± 2.8	–	–
CC[C@H](C)[C@H](NC(=O)[C@H](CO)NC(=O)[C@@H](Cc1cccnc1)NC(=O)[C@@H](Cc1ccc(Cl)cc1)NC(=O)[C@@H](Cc1ccc2ccccc2c1)NC(C)=O)C(=O)N[C@H](CCCCNC(=O)c1cccnc1)C(=O)N[C@@H](CC(C)C)C(=O)N[C@@H](CCCCNC(C)C)C(=O)N1CCC[C@H]1C(=O)N[C@H](C)C(N)=O [compound 25144] (Ac-[d2Nal][dPhe(4-Cl)][d3Pal]SI[dK](Nicotinoyl)L[Lys(iPr)]P[dA]-NH2)	147.7	–	–
CC[C@H](C)[C@H](NC(=O)[C@@H](CCCCNC(=O)c1ccccn1)NC(=O)[C@H](CCCCNC(=O)c1ccccn1)NC(=O)[C@H](CO)NC(=O)[C@@H](Cc1cccnc1)NC(=O)[C@@H](Cc1ccc(Cl)cc1)NC(=O)[C@@H](Cc1ccc2ccccc2c1)NC(C)=O)C(=O)N[C@@H](CCCCNC(C)C)C(=O)N1CCC[C@H]1C(=O)N[C@H](C)C(N)=O [compound 26020] (Ac-[d2Nal][dPhe(4-Cl)][d3Pal]SK(Picolinoyl)[dK](Picolinoyl)I[Lys(iPr)]P[dA]-NH2)	–	110.7 ± 2.3	–
CC(=O)N[C@H](Cc1ccc2ccccc2c1)C(=O)N[C@H](Cc1ccc(Cl)cc1)C(=O)N[C@H](Cc1cccnc1)C(=O)N[C@@H](CO)C(=O)N[C@@H](CCCCNC(=O)c1cccc(C)n1)C(=O)N[C@H](CCCCNC(=O)c1cccc(C)n1)C(=O)N[C@@H](CC(C)C)C(=O)N[C@@H](CCCCNC(C)C)C(=O)N1CCC[C@H]1C(=O)N[C@H](C)C(N)=O [compound 25808] (Ac-[d2Nal][dPhe(4-Cl)][d3Pal]SK(Picolinoyl(6-Me))[dK](Picolinoyl(6-Me))L[Lys(iPr)]P[dA]-NH2)	–	106.2 ± 4.3	–
CC[C@H](C)[C@H](NC(=O)[C@H](CO)NC(=O)[C@@H](Cc1cccnc1)NC(=O)[C@@H](Cc1ccc(Cl)cc1)NC(=O)[C@@H](Cc1ccc2ccccc2c1)NC(C)=O)C(=O)N[C@H](CCCCNC(=O)c1cccnc1)C(=O)N[C@@H](CC(C)C)C(=O)N[C@@H](CCCNC(C)C)C(=O)N1CCC[C@H]1C(=O)N[C@H](C)C(N)=O [compound 25145] (Ac-[d2Nal][dPhe(4-Cl)][d3Pal]SI[dK](Nicotinoyl)L[Orn(iPr)]P[dA]-NH2)	116.5	–	–
